Reference: US20170166928A1, “Compositions And Methods For Genetically Modifying Yeast” (priority 2015, published 2017)

Test system: Candida albicans
Test: Growth of Candida albicans strains in medium with drug
Type: cell-based
Conditions: for drug resistance of cdr1/cdr1 cdr2/cdr2 double mutants versus parental isolate: clinical isolate Can90; for doubling time: liquid growth in 1.2 μg/ml fluconazole
Method: Candida albicans strain SC5314 was used for all experiments unless otherwise noted. The fluconazole-resistant C. albicans strain Can90 was kindly provided by the Massachusetts General Hospital. Yeast strains were grown in YPD (1% Bacto Yeast extract, 2% Bacto Peptone, 2% Dextrose) medium supplemented with 0.27 mM uridine, and selected using Nourseothricin (Nat) at a concentration of 200 μg/ml. Transformations were performed using the lithium acetate method (27). Flipout of Nat^R gene from Cas9-expressing Duet vector pV1025 was done by induction of flippase by growth in Difco yeast carbon base with bovine serum albumin, and screening for isolates that had lost the Nat^R gene. Filamentation experiments were performed with yeast grown overnight in liquid YPD, washed twice in RPMI-1640 medium (Cat #22400-105, Life Technologies) supplemented with 10% fetal bovine serum, and incubated in RPMI+10% FBS for the indicated time at a starting OD of 0.1. Growth curves were performed in a clear-bottomed 96-well plate, incubated with shaking at 30° C. in a Tecan Saphire^2 plate reader, reading optical density at 600 nm every 5 minutes for the indicated time. YPD-grown overnight yeast cultures were used to inoculate these wells to an initial OD of 0.05. CRISPR-mutagenized loci were verified by sequence analysis of PCR products amplified from the target locus and by restriction digest where applicable.

## C[C@@H]1C[C@@H]([C@H](O)CC2CC(=O)NC(=O)C2)C(=O)[C@@H](C)C1 [cycloheximide]
  drug resistance of cdr1/cdr1 cdr2/cdr2 double mutants versus parental isolate: no longer displayed the hyper-resistance

## OC(Cn1cncn1)(Cn1cncn1)c1ccc(F)cc1F [fluconazole]
SC5314 snf1-K81R
  drug sensitivity of snf1-K81R strain: hypersensitive
ade2 CDR1 CDR2 strain
  doubling time: 6 h
ade2 cdr1 cdr2 mutant
  doubling time: 12 h
  drug resistance of cdr1/cdr1 cdr2/cdr2 double mutants versus parental isolate: no longer displayed the hyper-resistance
